In ChEMBL document CHEMBL1138895, “Synthesis and antibacterial activity of nocathiacin I analogues” (Bioorg Med Chem Lett, 2006):
≈ marks a conversion by molar mass, not a printed value.

Assays:
[1] = Solubility at pH 3.8; assay type: physicochemical; details: buffer
Staphylococcus aureus = test: Antibacterial activity against methicillin-sensitive Staphylococcus aureus A15090; assay type: functional
Streptococcus pneumoniae = test: Antibacterial activity against penicillin resistant Streptococcus pneumoniae A28272; assay type: functional
Enterococcus faecalis = test: Antibacterial activity against […] A20688; assay type: functional
Mus musculus = organism: Mus musculus; test: Activity against Staphylococcus aureus A15090 infected ICR mouse after 8 days; assay type: functional; details: 192 h, read-out: PD50
[2] = Solubility at pH 3.4; assay type: physicochemical; details: buffer
[3] = Solubility at pH 4.0; assay type: physicochemical; details: buffer
[4] = Solubility at pH 3.1; assay type: physicochemical; details: buffer
[5] = Solubility at pH 3.3; assay type: physicochemical; details: buffer
[6] = Solubility at pH 2.8; assay type: physicochemical; details: buffer
[7] = Solubility at pH 8.1; assay type: physicochemical; details: buffer
[8] = Solubility at pH 8.4; assay type: physicochemical; details: buffer
[9] = Solubility at pH 3.5; assay type: physicochemical; details: buffer
[10] = Solubility at pH 8.7; assay type: physicochemical; details: buffer

CO/C(C)=C1/NC(=O)[C@H]([C@@H](C)O)NC(=O)c2csc(n2)-c2cc(O)c(-c3nc(C(=O)N[C@@H](C)C(=O)NCc4cc(O)cc(O)c4)cs3)nc2-c2csc(n2)[C@@H]2COC(=O)c3c4c5c(cccc5n3O)COC(=O)[C@@H](O[C@H]3C[C@](C)(O)[C@H](N(C)C)[C@H](C)O3)[C@@H](OC4)[C@H](NC(=O)c3csc1n3)c1nc(cs1)C(=O)N2
solubility [1]: < 0.0003 mg/mL | MIC (Staphylococcus aureus): 1 mg/L (≈ 0.64 µM) | MIC (Streptococcus pneumoniae): 0.25 mg/L (≈ 0.16 µM) | MIC (Enterococcus faecalis): 2 mg/L (≈ 1.28 µM)

CO/C(C)=C1/NC(=O)[C@H]([C@@H](C)O)NC(=O)c2csc(n2)-c2cc(O)c(-c3nc(C(=O)N[C@@H](C)C(=O)N(CCO)CCO)cs3)nc2-c2csc(n2)[C@@H]2COC(=O)c3c4c5c(cccc5n3O)COC(=O)[C@@H](O[C@H]3C[C@](C)(O)[C@H](N(C)C)[C@H](C)O3)[C@@H](OC4)[C@H](NC(=O)c3csc1n3)c1nc(cs1)C(=O)N2
MIC (Staphylococcus aureus): 0.25 mg/L (≈ 0.164 µM) | MIC (Streptococcus pneumoniae): 0.25 mg/L (≈ 0.164 µM) | MIC (Enterococcus faecalis): 0.5 mg/L (≈ 0.327 µM) | ED50 (Mus musculus): > 10 mg/kg | solubility [2]: > 1.2 mg/mL

CO/C(C)=C1/NC(=O)[C@H]([C@@H](C)O)NC(=O)c2csc(n2)-c2cc(O)c(-c3nc(C(=O)N[C@@H](C)C(=O)N(C)CCO)cs3)nc2-c2csc(n2)[C@@H]2COC(=O)c3c4c5c(cccc5n3O)COC(=O)[C@@H](O[C@H]3C[C@](C)(O)[C@H](N(C)C)[C@H](C)O3)[C@@H](OC4)[C@H](NC(=O)c3csc1n3)c1nc(cs1)C(=O)N2
MIC (Staphylococcus aureus): 0.06 mg/L (≈ 0.0401 µM) | MIC (Streptococcus pneumoniae): 0.003 mg/L (≈ 0.002 µM) | MIC (Enterococcus faecalis): 0.03 mg/L (≈ 0.02 µM) | ED50 (Mus musculus): 1.65 mg/kg | solubility [3]: 2.3 mg/mL (≈ 1540 µM) | solubility [4]: 2.3 mg/mL (≈ 1540 µM)

CO/C(C)=C1/NC(=O)[C@H]([C@@H](C)O)NC(=O)c2csc(n2)-c2cc(O)c(-c3nc(C(=O)N[C@@H](C)C(=O)N4CCC(P(=O)(OC)OC)CC4)cs3)nc2-c2csc(n2)[C@@H]2COC(=O)c3c4c5c(cccc5n3O)COC(=O)[C@@H](O[C@H]3C[C@](C)(O)[C@H](N(C)C)[C@H](C)O3)[C@@H](OC4)[C@H](NC(=O)c3csc1n3)c1nc(cs1)C(=O)N2
MIC (Staphylococcus aureus): 0.015 mg/L (≈ 0.00928 µM) | MIC (Streptococcus pneumoniae): 0.015 mg/L (≈ 0.00928 µM) | MIC (Enterococcus faecalis): 0.03 mg/L (≈ 0.0186 µM) | solubility [5]: > 3 mg/mL

CO/C(C)=C1/NC(=O)[C@H]([C@@H](C)O)NC(=O)c2csc(n2)-c2cc(O)c(-c3nc(C(=O)N[C@@H](C)C(=O)NCCCOC4O[C@H](CO)[C@@H](O)[C@H](O)[C@H]4O)cs3)nc2-c2csc(n2)[C@@H]2COC(=O)c3c4c5c(cccc5n3O)COC(=O)[C@@H](O[C@H]3C[C@](C)(O)[C@H](N(C)C)[C@H](C)O3)[C@@H](OC4)[C@H](NC(=O)c3csc1n3)c1nc(cs1)C(=O)N2 (stereo not given in full)
MIC (Staphylococcus aureus): 4 mg/L (≈ 2.41 µM) | MIC (Streptococcus pneumoniae): 1 mg/L (≈ 0.602 µM) | MIC (Enterococcus faecalis): 8 mg/L (≈ 4.82 µM) | solubility [6]: > 2 mg/mL

CO/C(C)=C1/NC(=O)[C@H]([C@@H](C)O)NC(=O)c2csc(n2)-c2cc(O)c(-c3nc(C(=O)N[C@@H](C)C(=O)NCCCP(=O)([O-])O)cs3)nc2-c2csc(n2)[C@@H]2COC(=O)c3c4c5c(cccc5n3O)COC(=O)[C@@H](O[C@H]3C[C@](C)(O)[C@H](N(C)C)[C@H](C)O3)[C@@H](OC4)[C@H](NC(=O)c3csc1n3)c1nc(cs1)C(=O)N2.[Na+]
solubility [7]: > 1.7 mg/mL | MIC (Staphylococcus aureus): 8 mg/L | MIC (Streptococcus pneumoniae): 0.25 mg/L | MIC (Enterococcus faecalis): 32 mg/L

CO/C(C)=C1/NC(=O)[C@H]([C@@H](C)O)NC(=O)c2csc(n2)-c2cc(O)c(-c3nc(C(=O)N[C@@H](C)C(=O)NCCCO)cs3)nc2-c2csc(n2)[C@@H]2COC(=O)c3c4c5c(cccc5n3O)COC(=O)[C@@H](O[C@H]3C[C@](C)(O)[C@H](N(C)C)[C@H](C)O3)[C@@H](OC4)[C@H](NC(=O)c3csc1n3)c1nc(cs1)C(=O)N2
MIC (Staphylococcus aureus): 0.06 mg/L (≈ 0.0401 µM) | MIC (Streptococcus pneumoniae): 0.007 mg/L (≈ 0.00467 µM) | MIC (Enterococcus faecalis): 0.03 mg/L (≈ 0.02 µM) | ED50 (Mus musculus): 1.25 mg/kg | solubility [6]: 2.7 mg/mL (≈ 1800 µM)

CO/C(C)=C1/NC(=O)[C@H]([C@@H](C)O)NC(=O)c2csc(n2)-c2cc(O)c(-c3nc(C(=O)N[C@@H](C)C(=O)NCCS(=O)(=O)O)cs3)nc2-c2csc(n2)[C@@H]2COC(=O)c3c4c5c(cccc5n3O)COC(=O)[C@@H](O[C@H]3C[C@](C)(O)[C@H](N(C)C)[C@H](C)O3)[C@@H](OC4)[C@H](NC(=O)c3csc1n3)c1nc(cs1)C(=O)N2
solubility [8]: > 2.1 mg/mL | MIC (Staphylococcus aureus): 0.25 mg/L (≈ 0.162 µM) | MIC (Streptococcus pneumoniae): 0.03 mg/L (≈ 0.0194 µM) | MIC (Enterococcus faecalis): 0.25 mg/L (≈ 0.162 µM) | ED50 (Mus musculus): > 10 mg/kg

CO/C(C)=C1/NC(=O)[C@H]([C@@H](C)O)NC(=O)c2csc(n2)-c2cc(O)c(-c3nc(C(=O)N[C@@H](C)C(=O)NCCN(C)C)cs3)nc2-c2csc(n2)[C@@H]2COC(=O)c3c4c5c(cccc5n3O)COC(=O)[C@@H](O[C@H]3C[C@](C)(O)[C@H](N(C)C)[C@H](C)O3)[C@@H](OC4)[C@H](NC(=O)c3csc1n3)c1nc(cs1)C(=O)N2
solubility [9]: > 2.4 mg/mL | MIC (Staphylococcus aureus): 0.125 mg/L (≈ 0.0827 µM) | MIC (Streptococcus pneumoniae): 0.125 mg/L (≈ 0.0827 µM) | MIC (Enterococcus faecalis): 0.25 mg/L (≈ 0.165 µM)

CO/C(C)=C1/NC(=O)[C@H]([C@@H](C)O)NC(=O)c2csc(n2)-c2cc(O)c(-c3nc(C(=O)N[C@@H](C)C(=O)NCCCN4CCCC4)cs3)nc2-c2csc(n2)[C@@H]2COC(=O)c3c4c5c(cccc5n3O)COC(=O)[C@@H](O[C@H]3C[C@](C)(O)[C@H](N(C)C)[C@H](C)O3)[C@@H](OC4)[C@H](NC(=O)c3csc1n3)c1nc(cs1)C(=O)N2
MIC (Staphylococcus aureus): 0.25 mg/L (≈ 0.161 µM) | MIC (Streptococcus pneumoniae): 0.25 mg/L (≈ 0.161 µM) | MIC (Enterococcus faecalis): 0.5 mg/L (≈ 0.322 µM) | solubility [5]: > 2.6 mg/mL

CO/C(C)=C1/NC(=O)[C@H]([C@@H](C)O)NC(=O)c2csc(n2)-c2cc(O)c(-c3nc(C(=O)N[C@@H](C)C(=O)NCCc4ccc(S(=O)(=O)O)cc4)cs3)nc2-c2csc(n2)[C@@H]2COC(=O)c3c4c5c(cccc5n3O)COC(=O)[C@@H](O[C@H]3C[C@](C)(O)[C@H](N(C)C)[C@H](C)O3)[C@@H](OC4)[C@H](NC(=O)c3csc1n3)c1nc(cs1)C(=O)N2
solubility [10]: > 1.2 mg/mL | MIC (Staphylococcus aureus): 0.5 mg/L (≈ 0.308 µM) | MIC (Streptococcus pneumoniae): 0.125 mg/L (≈ 0.077 µM) | MIC (Enterococcus faecalis): 1 mg/L (≈ 0.616 µM) | ED50 (Mus musculus): > 10 mg/kg

C=C(NC(=O)c1csc(-c2nc3c(cc2O)-c2nc(cs2)C(=O)N[C@@H]([C@@H](C)O)C(=O)N/C(=C(\C)OC)c2nc(cs2)C(=O)N[C@@H]2c4nc(cs4)C(=O)N[C@@H](COC(=O)c4c5c6c(cccc6n4O)COC(=O)[C@@H](O[C@H]4C[C@](C)(O)[C@H](N(C)C)[C@H](C)O4)[C@H]2OC5)c2nc-3cs2)n1)C(N)=O [MJ347-81F4 A]
MIC (Staphylococcus aureus): 0.007 mg/L (≈ 0.00487 µM) | MIC (Streptococcus pneumoniae): 0.002 mg/L (≈ 0.00139 µM) | MIC (Enterococcus faecalis): 0.03 mg/L (≈ 0.0209 µM) | ED50 (Mus musculus): 0.8 mg/kg | solubility [3]: 0.34 mg/mL (≈ 237 µM)
